Test results published in patent publication US20250161377A1, “COMPOSITION COMPRISING AT LEAST ONE BIFIDOBACTERIUM STRAIN FOR THE TREATMENT OF VITILIGO” (INSTITUT NATIONAL DE LA SANTE ET DE LA RECHERCHE MEDICALE, priority 2022, published 2025).

System: Primary human keratinocytes (NHK)
Experiment: Mitochondrial ROS in keratinocytes, dihydrorhodamine labeling quantified by FACS
Type: cell-based
Conditions: NHK pretreated one hour, basal untreated = 100
Protocol: Primary human keratinocytes (NHK) were isolated from the foreskin of healthy children and cultured in a serum-free medium supplemented with bovine pituitary extract (250 μg/mL) and EGF (0.25 ng/mL). The NHKs are then seeded onto 6-well plates and incubated in a controlled atmosphere. When the keratinocytes reach 70 to 80% confluence, the cells are pretreated, or not, for one hour with various components. As a positive control, the NHKs are pretreated for one hour with […] (100 μM). The plates are then washed 3 times with a PBS solution before incubating the pretreated NHKs for one hour in the presence of H2O2 (100 μM) or LPS (100 ng/mL). At the end of the incubation, the cells are incubated in a solution of dihydrorhodamine (5 μM) for 30 minutes at 37° C., which allows for the labeling of ROS, particularly mitochondrial ROS. After 3 washes with a PBS solution, the mitochondrial ROS are quantified by FACS.

Sinapine was tested, and the “Mitochondrial ROS Level (%)” value (no stress treatment (—), sinapine 100 μM) was 100%, the “Mitochondrial ROS Level (%)” value (then H2O2 (100 μM) one hour, H2O2 alone = 352) was 100% and the “Mitochondrial ROS Level (%)” value (then LPS (100 ng/mL) one hour, LPS alone = 124) was 97%.
